Positions of bridges follow the written chain, without caps; N, C: chain ends. No end group written: not given here.
What was measured:
[1] = Dynamic Light Scattering (DLS), aggregation behavior in solution; type: physicochemical
Protocol: The aggregation behavior of peptides Pep 1, Pep 2, Pep 3, and Pep 4 in solution was determined by Dynamic Light Scattering (DLS), as shown in FIG. 1E. All synthetic peptides were approximately 100% monomeric in solution. The measured hydrodynamic radius of the peptides was similar for Pep 1 (0.82 nm), Pep 2 ([…]), Pep 3 (0.79 nm), and Pep 4 (0.86 nm).

TLR4 signaling pathway = TLR4 signaling pathway (SEAP) in HEK cells, LPS pre-treatment then peptides; type: cell-based; conditions: LPS then peptide, 12 hours
Protocol: HEK cells were used to investigate the ability of the peptides to reduce activation of the TLR4 signaling pathway after 12 hours of treatment.
In the assay shown in FIG. 7A, the cells were treated with peptides for 1 hour, then LPS (100 ng/ml) was added. SEAP production was measured after 12 hours of treatment. In the assay shown in FIG. 7B, the cells were treated with LPS (100 ng/ml) for 1 hour, then the peptides were added. SEAP production was measured after 12 hours of treatment. LPS (100 ng/mL) was used as positive control and IL-10 (0.4 ng/mL) as negative control. * P<0.05; ** P<0.005; *** P<0.0005.

IFN signaling pathway = IFN signaling pathway (SEAP) in Jurkart-Dual reporter cells, peptide pre-treatment then IFN-α; type: cell-based; conditions: peptide 1 hour, then IFN-α (104 EU/ml); 10 μM; 12 hours
Protocol: Therefore, we cannot confirm whether they were able to affect the activation pathway (FIGS. 6A, B, and C) in the same or better way than the negative control (rIL-10). In the assays shown in FIGS. 5 (A, B, and C) and 6 (A, B, and C), IFN expression was analyzed in Jurkart-Dual reporter cells. In the assays shown in FIGS. 5 A, B, and C, cells were treated with peptides for 1 hour followed by the addition of IFN-α (104 EU/ml). Secreted Embryonic Alkaline Phosphatase (SEAP) production was measured after 12 hours of treatment (FIG. 5A), 24 hours of treatment (FIG. 5B), and 48 hours of treatment (FIG. 5C). In the assays shown in FIGS. 6 A, B, and C, cells were treated with IFN-α (104 EU/ml) for 1 hour, and then peptides were added. SEAP production was measured after (D) 12 hours of treatment (E) 24 hours of treatment, and (F) 48 hours of treatment. IFN-α (104 EU/mL) was used as a positive control and rIL-10 (0.4 ng/mL) as a negative control. * P<0.05.

Substance: Pep 1: synthetic peptide with affinity to the Interleukin-10 receptor, SEQ ID No 01, with disulfide bridges (HACSAVIKSSCGGGS; disulfide 3-11 (inferred))
- hydrodynamic radius [1]: 0.82 nm
- activation of the TLR4 pathway (TLR4 signaling pathway; 0.001 μM): activation of the TLR4 pathway was more significantly reduced
- activation of the TLR4 pathway (TLR4 signaling pathway; 0.005 μM): activation of the TLR4 pathway was more significantly reduced
- activation of the TLR4 pathway (TLR4 signaling pathway; 0.01 μM): activation of the TLR4 pathway was more significantly reduced
- activation of the TLR4 pathway (TLR4 signaling pathway; 0.05 μM): activation of the TLR4 pathway was more significantly reduced
- activation of the TLR4 pathway (TLR4 signaling pathway; 0.1 μM): activation of the TLR4 pathway was more significantly reduced
- activation of the IFN signaling pathway (IFN signaling pathway): activation of the pathway was reduced

Source: patent publication US20220204577A1, “Synthetic Peptides With Affinity for the Interleukin-10 Receptor, Pharmaceutical Composition and Use Thereof as Immunomodulators for Treating Autoimmune, Inflammatory or Allergic Diseases” (Universidade Federal de Uberlândia, priority 2019, published 2022)
